Columns and labels:
utrophin [1] = assay: Utrophin in muscle of healthy OF1 mice injected i.p.; assay type: in vivo, mouse
Procedure: OF1 mice were injected daily with i.p. and for 6 weeks with 100, 200 or 300 mg/kg/day either with arginine butyrate or with physiological serum. No utrophin was observed on the membrane in the muscle of the mice injected with the physiological serum used as control (“non-treated”). […] This augmentation is dosage-dependent. The induction of utrophin under the muscular membrane is significant probably on account of an additive effect of the arginine via the NO and of the butyrate via the activation of the transcription of the utrophin gene.

utrophin [2] = assay: Utrophin in muscle of mdx mice injected i.p., immunofluorescence and Western blot; assay type: in vivo, mouse; settings: 200 mg/kg/day i.p. daily for 6 weeks
Procedure: Mdx mice were injected daily i.p. and for 6 weeks with 200 mg/kg/day either with butyrate or with L-arginine or with physiological serum. It is observed that the utrophin is poorly expressed in the muscle of the mdx mice injected with physiological serum used as control. […] It should be noted that the augmentation of utrophin is greater in the case of the mice injected with butyrate. The augmentation of the utrophin was quantified in Western blot.

utrophin [3] = assay: Utrophin expression in myotubes of mdx mice, Western blot; assay type: cell-based, mouse; settings: myotubes of dystrophic mdx mice (line xlt), 5 mM, 48 h
Procedure: Myotubes of dystrophic mdx mice (line xlt) are treated with 5 mM of butyrate for 48 h. The augmentation of utrophin is then quantified in Western blot.

In the case of arginine butyrate, the “dose dependence of the augmentation of utrophin” value (utrophin [1]; OF1 mice, 100, 200 or 300 mg/kg/day i.p. daily for 6 weeks) is reported as “dosage-dependent”, the “utrophin localisation in muscle” value (utrophin [1]; OF1 mice, 100, 200 or 300 mg/kg/day i.p. daily for 6 weeks, vs physiological serum control) is reported as “utrophin appears very clearly under the muscular membrane” and the quantity of utrophin (utrophin [1]; healthy muscles and mdx mouse (FIG. 4), summary statement) is reported as “significantly augments the quantity of utrophin”.

In the case of `N=C(N)NCCC[C@H](N)C(=O)O` [L-arginine], the “utrophin localisation in muscle” value (utrophin [2]; vs physiological serum control) is reported as “the utrophin appears under the muscular membrane”.

With `CCCC(=O)O` [butyrate] the “augmentation of expression of utrophin (factor, intensity of Western blot bands)” value (utrophin [2]) was 2 and the “augmentation of expression of utrophin (factor, intensity of Western blot bands)” value (utrophin [3]) was 2.

— patent US20080160108A1, “Method of treating muscular dystrophies with an inhibitor of histone deacetylase” (Centre National de la Recherche Scientifique- CNRS, a …, priority 2002, published 2008)
